Test results published in patent publication US20240199546A1, “INHIBITORS OF SOLUTE CARRIER FAMILY 6A MEMBER 19 (SLC6A19) AND METHODS OF USE THEREOF” (Maze Therapeutics, Inc., priority 2022, published 2024).
pIC50: −log10 of the molar value.

Legend:
human SLC6A19 and TMEM27 [1] = target: T1, human SLC6A19 and TMEM27 (Homo sapiens, UniProt Q695T7); assay: Radiolabelled (3H) leucine uptake in CHO cells with doxycycline-inducible expression of human SLC6A19 and TMEM27 (Example B-1); assay type: cell-based; details: CHO cells with doxycycline-inducible expression of human SLC6A19 and TMEM27, read-out: SLC6A19_Radioligand Uptake Assay IC50
T1 construct: expressed in transfected cells
T1 sequence (Q695T7 1-634): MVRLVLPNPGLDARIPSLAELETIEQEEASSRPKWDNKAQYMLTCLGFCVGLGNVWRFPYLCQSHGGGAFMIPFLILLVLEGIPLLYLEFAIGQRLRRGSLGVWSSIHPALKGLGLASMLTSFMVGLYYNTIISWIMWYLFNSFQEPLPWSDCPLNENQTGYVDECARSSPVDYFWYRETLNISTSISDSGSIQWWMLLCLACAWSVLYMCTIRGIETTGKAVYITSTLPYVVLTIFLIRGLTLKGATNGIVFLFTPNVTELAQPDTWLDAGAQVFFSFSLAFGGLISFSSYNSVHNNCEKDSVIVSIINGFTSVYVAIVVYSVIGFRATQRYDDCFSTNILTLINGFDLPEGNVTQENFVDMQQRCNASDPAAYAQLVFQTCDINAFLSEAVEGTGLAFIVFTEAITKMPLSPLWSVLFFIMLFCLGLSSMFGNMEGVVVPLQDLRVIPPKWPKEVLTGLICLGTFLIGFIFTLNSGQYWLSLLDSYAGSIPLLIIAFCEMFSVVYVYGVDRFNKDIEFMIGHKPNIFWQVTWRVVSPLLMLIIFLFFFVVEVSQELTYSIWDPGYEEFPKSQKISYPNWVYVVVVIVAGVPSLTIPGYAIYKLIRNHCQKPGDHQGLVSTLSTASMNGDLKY
T1 sequence (Q9HBJ8 15-222 partner): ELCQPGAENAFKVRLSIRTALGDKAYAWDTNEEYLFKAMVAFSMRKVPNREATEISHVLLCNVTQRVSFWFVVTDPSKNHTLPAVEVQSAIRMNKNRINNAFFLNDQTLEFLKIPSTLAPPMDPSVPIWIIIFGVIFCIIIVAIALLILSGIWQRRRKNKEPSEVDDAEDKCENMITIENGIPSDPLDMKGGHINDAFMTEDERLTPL
Outline: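 CHO cells were induced with doxycycline for 18 h at 37 °C, washed in HBSS, then exposed to compounds for 1 h: 8-point, 3-fold dilutions in duplicate, 0.5% DMSO final. Uptake measured by scintillation counting after 2 h shaking. Activity normalized with positive control as 0% and DMSO as 100%.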

human SLC6A19 and TMEM27 [2] = target: T1, human SLC6A19 and TMEM27; assay: 13C6,15N-isoleucine uptake in CHO cells with doxycycline-inducible expression of human SLC6A19 and TMEM27, RapidFire mass spectrometry (Example B-2); assay type: cell-based; details: read-out: SLC6A19_RapidFire Uptake Assay IC50
Outline: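 CHO cells induced overnight with doxycycline to express human SLC6A19 plus TMEM27; 20 min preincubation with compound (10-point 2-fold series, duplicate) at 37 °C in HEPES buffer pH 7.2, then 20 min with 13C6,15N-isoleucine. Intracellular label quantified by RapidFire MS against 13C-leucine standard; positive control defined 100% inhibition.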

| SMILES | pIC50 (human SLC6A19 and TMEM27 [1]) | pIC50 (human SLC6A19 and TMEM27 [2]) |
| --- | --- | --- |
| Cc1cc(CCOc2cc3[nH]c(CNC(=O)C4(C)CC4)cc3cc2Cl)no1 [Compound 99, N-((5-chloro-6-(2-(5-methylisoxazol-3-yl)ethoxy)-1H-indol-2-yl)methyl)-1-methylcyclopropane-1-carboxamide] | 6.80 | 7.09 |
| CC1(C(=O)NCc2cc3cc(Cl)c(OCc4ccns4)cc3[nH]2)CC1 [Compound 322, N-((5-chloro-6-(isothiazol-5-ylmethoxy)-1H-indol-2-yl)methyl)-1-methylcyclopropane-1-carboxamide] | 6.56 | 6.86 |
| CNC(=O)NCc1cc2cc(F)c(OCc3cocn3)cc2[nH]1 [Compound 215, 1-((5-fluoro-6-(oxazol-4-ylmethoxy)-1H-indol-2-yl)methyl)-3-methylurea] | 6.01 | 5.41 |
| CC1(C(=O)NCc2cc3cc(Cl)c(CNc4ccon4)cc3[nH]2)CC1 [Compound 608, N-((5-chloro-6-((isoxazol-3-ylamino)methyl)-1H-indol-2-yl)methyl)-1-methylcyclopropane-1-carboxamide] | 6.52 | 6.34 |
| O=C(NCc1cc2cc(F)c(OCc3cscn3)cc2[nH]1)C1CCC1 [Compound 430, N-((5-fluoro-6-(thiazol-4-ylmethoxy)-1H-indol-2-yl)methyl)cyclobutanecarboxamide] | 6.86 | 7.16 |
| Cc1cnc(COc2cc3[nH]c(CNC(=O)C4(C)CC4)cc3cc2Cl)s1 [Compound 63, N-((5-chloro-6-((5-methylthiazol-2-yl)methoxy)-1H-indol-2-yl)methyl)-1-methylcyclopropane-1-carboxamide] | 6.52 | 7.25 |
| O=C(NCc1cc2cc(Cl)c(OCc3cocn3)cc2[nH]1)N1CCCC1 [Compound 113, N-((5-chloro-6-(oxazol-4-ylmethoxy)-1H-indol-2-yl)methyl)pyrrolidine-1-carboxamide] | 6.55 | 6.76 |
| Cn1ncc(COc2cc3[nH]c(CNC(=O)C4(C)CC4)cc3cc2Cl)n1 [Compound 172, N-((5-chloro-6-((2-methyl-2H-1,2,3-triazol-4-yl)methoxy)-1H-indol-2-yl)methyl)-1-methylcyclopropane-1-carboxamide] | 6.80 | 7.39 |
| O=C(NCc1cc2cc(Cl)c(OCc3cscn3)cc2[nH]1)C1(F)CC1 [Compound 231, N-((5-chloro-6-(thiazol-4-ylmethoxy)-1H-indol-2-yl)methyl)-1-fluorocyclopropane-1-carboxamide] | 6.86 | 7.31 |
| CC(=O)NCc1cc2cc(Cl)c(OCc3cnn(C)n3)cc2[nH]1 [Compound 221, N-((5-chloro-6-((2-methyl-2H-1,2,3-triazol-4-yl)methoxy)-1H-indol-2-yl)methyl)acetamide] | 6.54 | 6.33 |
| O=C(NCc1cc2cc(Cl)c(OCc3cccc(F)n3)cc2[nH]1)N1CCCC1 [Compound 425, N-((5-chloro-6-((6-fluoropyridin-2-yl)methoxy)-1H-indol-2-yl)methyl)pyrrolidine-1-carboxamide] | 6.50 | 6.94 |
| CC(C)(C)C(=O)NCc1cc2cc(Cl)c(OCc3cscn3)cc2[nH]1 [Compound 432, N-((5-chloro-6-(thiazol-4-ylmethoxy)-1H-indol-2-yl)methyl)pivalamide] | 6.42 | 6.60 |
| CC1(C(=O)NCc2cc3cc(Cl)c(OCCC4CC(F)(F)C4)cc3[nH]2)CC1 [Compound 393, N-((5-chloro-6-(2-(3,3-difluorocyclobutyl)ethoxy)-1H-indol-2-yl)methyl)-1-methylcyclopropane-1-carboxamide] | 5.84 | 6.11 |
| CC1(C(=O)NCc2cc3cc(Cl)c(OCc4cccnc4F)cc3[nH]2)CC1 [Compound 30, N-((5-chloro-6-((2-fluoropyridin-3-yl)methoxy)-1H-indol-2-yl)methyl)-1-methylcyclopropane-1-carboxamide] | 6.58 | 6.81 |
| CC1(C(=O)NCc2cc3cc(Cl)c(OCc4cccs4)cc3[nH]2)CC1 [Compound 65, N-((5-chloro-6-(thiophen-2-ylmethoxy)-1H-indol-2-yl)methyl)-1-methylcyclopropane-1-carboxamide] | 6.82 | 7.34 |
| CC1(C(=O)NCc2cc3ccc(CCc4cscn4)cc3[nH]2)CC1 [Compound 76, 1-methyl-N-((6-(2-(thiazol-4-yl)ethyl)-1H-indol-2-yl)methyl)cyclopropane-1-carboxamide] | 7.00 | 7.47 |
| Cc1csc(COc2cc3[nH]c(CNC(=O)C4(C)CC4)cc3cc2Cl)n1 [Compound 24, N-((5-chloro-6-((4-methylthiazol-2-yl)methoxy)-1H-indol-2-yl)methyl)-1-methylcyclopropane-1-carboxamide] | 6.39 | 6.65 |
| O=C(NCc1cc2cc(Cl)c(NCc3ccon3)cc2[nH]1)N1CCC1 [Compound 407, N-((5-chloro-6-((isoxazol-3-ylmethyl)amino)-1H-indol-2-yl)methyl)azetidine-1-carboxamide] | 6.21 | 6.23 |
| Cc1nc(COc2cc3[nH]c(CNC(=O)N4CCC4)cc3cc2Cl)co1 [Compound 408, N-((5-chloro-6-((2-methyloxazol-4-yl)methoxy)-1H-indol-2-yl)methyl)azetidine-1-carboxamide] | 6.32 | 6.30 |
| Cc1cc(COc2c(Cl)cc3cc(CNC(=O)C4(C)CC4)[nH]c3c2Cl)no1 [Compound 343, N-((5,7-dichloro-6-((5-methylisoxazol-3-yl)methoxy)-1H-indol-2-yl)methyl)-1-methylcyclopropane-1-carboxamide] | 5.50 | 5.61 |
| CC1(C(=O)NCc2cc3cc(Cl)c(OCc4ccsc4Cl)cc3[nH]2)CC1 [Compound 321, N-((5-chloro-6-((2-chlorothiophen-3-yl)methoxy)-1H-indol-2-yl)methyl)-1-methylcyclopropane-1-carboxamide] | 6.05 | 6.42 |
| CC1(C(=O)NCc2cc3c(F)cc(OCc4ccon4)cc3[nH]2)CC1 [Compound 27, N-((4-fluoro-6-(isoxazol-3-ylmethoxy)-1H-indol-2-yl)methyl)-1-methylcyclopropane-1-carboxamide] | 7.08 | 7.04 |
| O=C(NCc1cc2cc(F)c(CCc3ccon3)cc2[nH]1)N1CCCC1 [Compound 603, N-((5-fluoro-6-(2-(isoxazol-3-yl)ethyl)-1H-indol-2-yl)methyl)pyrrolidine-1-carboxamide] | 6.46 | 6.58 |
| O=C(NCc1cc2cc(F)c(OCc3cscn3)cc2[nH]1)C1CC1 [Compound 136, N-((5-fluoro-6-(thiazol-4-ylmethoxy)-1H-indol-2-yl)methyl)cyclopropanecarboxamide] | 7.08 | 7.42 |
| CC1(C(=O)NCc2cc3cc(F)c(OCc4cscn4)cc3[nH]2)CC1 [Compound 8, N-((5-fluoro-6-(thiazol-4-ylmethoxy)-1H-indol-2-yl)methyl)-1-methylcyclopropane-1-carboxamide] | 6.92 | 7.29 |
| CC1CN(C(=O)NCc2cc3cc(F)c(OCc4ccon4)cc3[nH]2)C1 [Compound 389, N-((5-fluoro-6-(isoxazol-3-ylmethoxy)-1H-indol-2-yl)methyl)-3-methylazetidine-1-carboxamide] | 6.45 | 6.31 |
| CCC(=O)NCc1cc2cc(Cl)c(OCc3cc(C)on3)cc2[nH]1 [Compound 128, N-((5-chloro-6-((5-methylisoxazol-3-yl)methoxy)-1H-indol-2-yl)methyl)propionamide] | 7.15 | 7.49 |
| CC1(C(=O)NCc2cc3cc(F)c(CCc4ccon4)cc3[nH]2)CC1 [Compound 592, N-((5-fluoro-6-(2-(isoxazol-3-yl)ethyl)-1H-indol-2-yl)methyl)-1-methylcyclopropane-1-carboxamide] | 6.79 | 7.03 |
| O=C(NCc1cc2cc(Cl)c(OCc3ccon3)cc2[nH]1)C1(F)CC1 [Compound 232, N-((5-chloro-6-(isoxazol-3-ylmethoxy)-1H-indol-2-yl)methyl)-1-fluorocyclopropane-1-carboxamide] | 7.00 | 7.39 |
